Values quoted from earlier work, collected in US10441534B2, “Method for treating gynecological diseases” (PregLem SA, priority 2012, dated 2019).

Legend:
[1] = once daily UPA 5 mg tablets, plasma
uterine fibroids = details: three months treatment period

For `CC(=O)O[C@]1(C(C)=O)CC[C@H]2[C@@H]3CCC4=CC(=O)CCC4=C3[C@@H](c3ccc(N(C)C)cc3)C[C@@]21C` [ulipristal acetate, 17α-acetoxy-11β-(4-(N,N-dimethylamino)-phenyl)-19-norpregna-4,9-diene-3,20-dione], the “UPA Cmax” value [1] is listed as “about 25 ng/mL”, the “UPA steady state concentrations” value [1] is listed as “about 3 ng/mL” and the “efficacy in patient with uterine fibroids” value (uterine fibroids) is listed as “efficient on the control of bleeding, reduction of fibroids volume and improvement of the patient quality of life”.
